Experimental data reported in ChEMBL document CHEMBL5120859, “Optimization of 4-arylthiophene-3-carboxylic acid derivatives as inhibitors of ANO1: Lead optimization studies toward their analgesic efficacy for inflammatory pain” (Eur J Med Chem, 2022).
Active and inactive are the calls of the source. The rule behind the calls is not given here.

What was measured:
[1] = Cytotoxicity against human HEK293 cells assessed as inhibition of cell growth at 30 uM incubated for 72 hrs by CCK-8 assay; type: toxicity, cell-based
Mus musculus = experiment: Analgesic activity in C57BL/6 mouse model of capsaicin-induced allodynia assessed as reduction on foot licking pain response at 80 mg/kg,po measured after 5 mins; type: functional, organism-based
[2] = biological target: Voltage-gated potassium channel, KQT; KCNQ2(Kv7.2)/KCNQ3(Kv7.3) (Homo sapiens) (UniProt O43526+O43525); experiment: Inhibition of KCNQ2/3 (unknown origin) at a holding potential -40 mV at 30 uM by whole cell patch clamp electrophysiology relative to control
[3] = Ratio of drug concentration in brain to plasma in C57BL/6 mouse at 40 mg/kg,IG measured after 6 hrs by HPLC analysis; type: ADME, organism-based; details: po
[4] = Cmax in C57BL/6 mouse at 40 mg/kg,IG measured upto 24 hrs by HPLC-MS/MS analysis; type: ADME, organism-based; set-up: dose 40 mg/kg, time < 24 hrs, route ig; details: in vivo, po
[5] = Acute toxicity in C57BL/6 mouse assessed as toxic symptoms at 1000 mg/kg,po measured after 24 hrs; type: organism-based; details: in vivo
[6] = Bioavailability in C57BL/6 mouse at 40 mg/kg,IG measured upto 24 hrs by HPLC-MS/MS analysis; type: ADME, organism-based; details: in vivo, po
[7] = AUC (0 to t) in C57BL/6 mouse at 40 mg/kg,iv measured upto 24 hrs by HPLC-MS/MS analysis; type: ADME, organism-based; set-up: dose 40 mg/kg, time < 24 hrs, route iv; details: in vivo
Anoctamin-2 = biological target: T1, Anoctamin-2 (Homo sapiens, UniProt Q9NQ90); experiment: Inhibition of human ANO2 expressed in HEK293 cells incubated for 5 mins by whole cell patch clamp electrophysiology; type: cell-based
T1 sequence (Q9NQ90 whole entry): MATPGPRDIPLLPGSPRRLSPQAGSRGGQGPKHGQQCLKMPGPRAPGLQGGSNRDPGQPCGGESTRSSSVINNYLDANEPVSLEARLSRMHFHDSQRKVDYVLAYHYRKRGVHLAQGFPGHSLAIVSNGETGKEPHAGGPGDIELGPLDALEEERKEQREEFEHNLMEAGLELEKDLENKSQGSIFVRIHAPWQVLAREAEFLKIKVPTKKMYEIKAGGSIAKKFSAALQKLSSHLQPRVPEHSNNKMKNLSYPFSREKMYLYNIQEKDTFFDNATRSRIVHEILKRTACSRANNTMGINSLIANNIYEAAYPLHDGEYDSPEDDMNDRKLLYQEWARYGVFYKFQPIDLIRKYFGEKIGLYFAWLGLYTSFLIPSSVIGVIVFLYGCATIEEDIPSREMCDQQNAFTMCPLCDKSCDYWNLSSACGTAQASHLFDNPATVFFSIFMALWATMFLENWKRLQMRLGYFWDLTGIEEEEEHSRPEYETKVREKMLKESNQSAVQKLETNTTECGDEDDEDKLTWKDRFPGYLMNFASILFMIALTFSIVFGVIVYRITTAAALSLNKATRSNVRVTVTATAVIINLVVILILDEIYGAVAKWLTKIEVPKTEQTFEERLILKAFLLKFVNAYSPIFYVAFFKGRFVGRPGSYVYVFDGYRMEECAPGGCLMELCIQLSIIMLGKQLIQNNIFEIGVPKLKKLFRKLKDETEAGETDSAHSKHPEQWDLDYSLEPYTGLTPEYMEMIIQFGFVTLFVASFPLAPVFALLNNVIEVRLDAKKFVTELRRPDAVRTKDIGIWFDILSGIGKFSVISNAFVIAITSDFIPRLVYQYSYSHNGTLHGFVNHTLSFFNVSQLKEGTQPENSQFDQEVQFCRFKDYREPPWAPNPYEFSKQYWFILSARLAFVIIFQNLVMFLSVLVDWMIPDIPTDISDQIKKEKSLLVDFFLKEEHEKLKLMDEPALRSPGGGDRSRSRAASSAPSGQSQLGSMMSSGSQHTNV

[8] = biological target: T2, Anoctamin-1 (Homo sapiens) (UniProt Q5XXA6); experiment: Inhibition of YFP tagged ANO1 (unknown origin) expressed in FRT cells at 30 uM incubated for 24 hrs by whole cell patch clamp electrophysiology relative to control; type: cell-based
T2 sequence (whole entry): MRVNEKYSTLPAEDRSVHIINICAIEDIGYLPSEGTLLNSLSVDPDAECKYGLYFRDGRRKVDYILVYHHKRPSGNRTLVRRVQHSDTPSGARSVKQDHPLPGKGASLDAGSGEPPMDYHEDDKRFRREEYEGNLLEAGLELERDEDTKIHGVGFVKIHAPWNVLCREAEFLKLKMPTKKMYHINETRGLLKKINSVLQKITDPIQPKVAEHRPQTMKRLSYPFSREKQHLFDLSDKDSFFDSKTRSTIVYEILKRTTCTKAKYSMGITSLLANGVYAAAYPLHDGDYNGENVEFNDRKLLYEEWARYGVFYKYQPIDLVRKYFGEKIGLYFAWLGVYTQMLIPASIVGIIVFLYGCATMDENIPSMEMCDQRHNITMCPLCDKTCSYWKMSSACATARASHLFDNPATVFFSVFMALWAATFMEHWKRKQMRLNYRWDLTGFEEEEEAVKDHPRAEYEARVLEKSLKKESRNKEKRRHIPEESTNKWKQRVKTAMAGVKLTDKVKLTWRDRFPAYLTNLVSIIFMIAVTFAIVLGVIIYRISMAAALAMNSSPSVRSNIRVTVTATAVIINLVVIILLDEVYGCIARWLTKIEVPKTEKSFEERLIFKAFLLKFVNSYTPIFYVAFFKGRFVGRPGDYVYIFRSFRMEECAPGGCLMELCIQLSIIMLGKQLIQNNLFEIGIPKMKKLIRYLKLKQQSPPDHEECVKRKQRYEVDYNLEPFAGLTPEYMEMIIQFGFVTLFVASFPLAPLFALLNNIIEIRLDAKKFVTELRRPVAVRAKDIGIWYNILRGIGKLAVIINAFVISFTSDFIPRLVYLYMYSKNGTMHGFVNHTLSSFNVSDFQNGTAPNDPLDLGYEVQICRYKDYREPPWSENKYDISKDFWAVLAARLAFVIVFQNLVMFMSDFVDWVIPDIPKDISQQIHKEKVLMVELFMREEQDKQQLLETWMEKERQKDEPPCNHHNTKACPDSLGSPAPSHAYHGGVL

[9] = Tmax in C57BL/6 mouse at 40 mg/kg,IG measured upto 24 hrs by HPLC-MS/MS analysis; type: ADME, organism-based; details: in vivo, po
Anoctamin-1 = biological target: T3, Anoctamin-1 (Homo sapiens, UniProt Q5XXA6); experiment: Inhibition of YFP tagged ANO1 (unknown origin) expressed in FRT cells incubated for 24 hrs by fluorescence plate reader assay; type: cell-based
T3 sequence (Q5XXA6 whole entry): T2 sequence (whole entry)

[10] = Plasma concentration in C57BL/6 mouse at 40 mg/kg,IG measured after 0.25 hrs by HPLC analysis; type: ADME, organism-based; details: po
[11] = MRT (0 to t) in C57BL/6 mouse at 40 mg/kg,IG measured upto 24 hrs by HPLC-MS/MS analysis; type: ADME, organism-based; details: in vivo, po
[12] = Cmax in C57BL/6 mouse at 40 mg/kg,iv measured upto 24 hrs by HPLC-MS/MS analysis; type: ADME, organism-based; set-up: time < 24 hrs, dose 40 mg/kg, route iv; details: in vivo
[13] = Plasma concentration in C57BL/6 mouse at 40 mg/kg,IG measured after 6 hrs by HPLC analysis; type: ADME, organism-based; details: po

Question: Which results are given for `O=C(Nc1scc(-c2ccc(Cl)cc2)c1C(=O)O)c1cc(F)ccc1F`?
Answer: inhibition at 72 h, 30 µM [1]: < 10%; Activity (Mus musculus): Active; inhibition [2]: 21.4%; Ratio [3]: 1.4%; Cmax [4]: 97.7 µg/mL; Activity [5]: Non-Toxic; bioavailability [6]: 75.7%; AUC(0-t) at 24 h [7]: 350 µg·h/mL; IC50 (Anoctamin-2): 8.7 µM; inhibition [8]: 95.6%; Tmax [9]: 0.25 h; IC50 (Anoctamin-1): 0.024 µM; concentration at 0.25 h [10]: 97.7 µg/mL; MRT last at 24 h [11]: 5.4 h; Cmax [12]: 183 µg/mL; concentration at 6 h [13]: 24.3 µg/mL
